In patent US11857637B2, “Anti-CD25 antibody-maytansine conjugates and methods of use thereof” (priority 2019, dated 2024):
Where two headings read alike, the source gives them in different places.

Columns and labels:
Karpas 299 xenograft = Karpas 299 xenograft study; assay type: in vivo, Female CB17.SCID mice; details: 10 mg/kg intravenously, single dose or qwk×4; at 28 days; subcutaneous Karpas 299 tumors, FIG. 11
Procedure: Female CB17.SCID mice (6/group) were inoculated subcutaneously with 5×10^6 Karpas 299 cells. Treatment began when the tumors reached an average of 205 mm^3, at which time the animals were dosed intravenously with vehicle alone or the anti-CD25 HIPS-4AP-maytansine conjugate (10 mg/kg). One group received a single dose of the anti-CD25 HIPS-4AP-maytansine conjugate, while another group was dosed once per week for a total of four doses (qwk×4). The animals were monitored twice weekly for body weight and tumor size. Animals were euthanized when tumors reached 2000 mm^3.

[1] = test system: CD25-positive leukemia and lymphoma cell lines, SU-DHL-1, HDLM-2, EoL-1, L-540, and Karpas 299; assay: In vitro cytotoxicity, range over the five cell lines; assay type: cell-based; details: read-out: IC50 concentrations (range across assays)
Procedure: (§1) The CD25-positive leukemia and lymphoma cell lines, SU-DHL-1, HDLM-2, EoL-1, L-540, and Karpas 299, were obtained from the ATCC and DSMZ cell banks, or were tested at Crown Bioscience, Inc. The cells were maintained in RPMI-1640 medium (Cellgro) supplemented with 10 or 20% fetal bovine serum (Invitrogen) and Glutamax (Invitrogen). 24 h prior to plating, cells were passaged to ensure log-phase growth. On the day of plating, 5000 cells/well were seeded onto 96-well plates in 100 μL normal growth medium supplemented with 10 IU penicillin and 10 μg/mL streptomycin (Cellgro). Cells were treated at various concentrations with 20 μL of diluted analytes, and the plates were incubated at 37° C. in an atmosphere of 5% CO2. After 5 d, 100 μL/well of Cell Titer-Glo reagent (Promega) was added, and luminescence was measured using a Molecular Devices SpectraMax M5 plate reader. GraphPad Prism software was used for data analysis.

Karpas 299 cells = assay: In vitro cytotoxicity (Cell Titer-Glo, 5 d); assay type: cell-based; details: Karpas 299 cell line, 5 d incubation, FIG. 10
Procedure: as §1

EoL-1 cells = assay: In vitro cytotoxicity (Cell Titer-Glo, 5 d); assay type: cell-based; details: EoL-1 cell line, 5 d incubation, FIG. 8
Procedure: as §1

SU-DHL-1 cells = assay: In vitro cytotoxicity (Cell Titer-Glo, 5 d); assay type: cell-based; details: SU-DHL-1 cell line, 5 d incubation, FIG. 6
Procedure: as §1

L-540 cells = assay: In vitro cytotoxicity (Cell Titer-Glo, 5 d); assay type: cell-based; details: L-540 cell line, 5 d incubation, FIG. 9
Procedure: as §1

HDLM-2 cells = assay: In vitro cytotoxicity (Cell Titer-Glo, 5 d); assay type: cell-based; details: HDLM-2 cell line, 5 d incubation, FIG. 7
Procedure: as §1

Molecule | detectable tumors at median time to endpoint of vehicle control groups (Karpas 299 xenograft) | IC50 ([1]; range over all five tested cell lines, 5 d incubation) [nM] | IC50 (Karpas 299 cells) [nM] | IC50 (EoL-1 cells) [nM] | IC50 (SU-DHL-1 cells) [nM] | IC50 (L-540 cells) [nM] | IC50 (HDLM-2 cells) [nM] | IC50 ([1]; 120 h) [nM]
anti-CD25 HIPS-4AP-maytansine conjugate: C-terminally aldehyde-tagged anti-CD25 antibody (daclizumab) conjugated to a maytansine payload attached to a HIPS-4AP linker; DAR 1.75-1.84 | none of the animals that had been dosed with the anti-CD25 HIPS-4AP-maytansine conjugate had detectable tumors | 0.06 to 0.49 | 0.49 | 0.07 | 0.24 | 0.43 | 0.06 | –
COc1cc2cc(c1Cl)N(C)C(=O)C[C@H](OC(=O)[C@H](C)N(C)C(C)=O)[C@]1(C)O[C@H]1[C@H](C)[C@@H]1C[C@@](O)(NC(=O)O1)[C@H](OC)/C=C/C=C(\C)C2 [free maytansine, maytansine] | – | – | – | – | – | – | – | 0.03 to 0.19
